Series [1] concerns the target T1, CYP2D6 (Homo sapiens, UniProt P10635). The note with it: succinic acid 20 μM, 0–30 min. As for the experimental part: (§1) To determine whether succinic acid could inhibit the activity of CYP3A4, 2D6, and 2C9 in a time-dependent manner, succinic acid (20 μM) was pre-incubated with HLMs (1 mg/mL) in the presence of an NADPH-generating system for 30 min at 37 °C. After incubation, an aliquot (20 μL) was transferred to another incubation tube (final volume 200 μL) containing an NADPH-generating system and probe substrates whose final concentrations were approximate to Km. Then, further incubations were performed to measure the residual activity. After being incubated for 0, 5, 10, 15, and 30 min, the reactions were terminated by adding a 100 μL acetonitrile internal standard mix and then placed on ice; the corresponding metabolites were determined by HPLC.

Series [2] concerns the target T2, CYP2C9 (Homo sapiens, UniProt P11712). The note with it: succinic acid 20 μM, 0–30 min. As to the method: as §1
Series [3] has as its target T3, CYP3A4 (Homo sapiens, UniProt P08684). As for the experimental part: as §1
To determine the KI and Kinact values for the inactivation of CYP3A4, the incubations were conducted using higher probe substrate concentrations (approximately 4-fold Km values) and various concentrations of succinic acid (0–50 μM) after different preincubation times (0–30 min), with a two-step incubation scheme, as described above.

Series [4] deals with T1, CYP2D6. Put plainly: biochemical. As to the method:
(§2) All incubations were performed in triplicate, and the mean values were utilized. The typical incubation systems contained 100 mM potassium phosphate buffer (pH 7.4), NADPH generating system (1 mM NADP^+, 10 mM glucose-6-phosphate, 1 U/mL of glucose-6-phosphate dehydrogenase, and 4 mM MgCl2), the appropriate concentration of HLMs, a corresponding probe substrate and hispidulin (or positive inhibitor for different probe reactions) in a final volume of 200 μL.
(§3) The concentration of succinic acid was 100 μM, and the positive inhibitor concentrations were as follows: 10 μM furafylline for CYP1A2, 1 μM ketoconazole for CYP3A4, 10 μM tranylcypromine for CYP2A6, 50 μM clomethiazole for CYP2E1, 10 μM quinidine for CYP2D6, 10 μM sulfaphenazole for CYP2C9, 50 μM tranylcypromine for CYP2C19, 5 μM montelukast for CYP2C8. Probe substrates, positive inhibitors (except for dextromethorphan and quinidine, which were dissolved in water), and succinic acid were dissolved in methanol, with a final concentration of 1% (v/v), and 1% neat methanol was added to the incubations without inhibitor. There was a 3 min preincubation period (at 37 °C) before the reaction was initiated by adding an NADPH-generating system. The reaction was terminated by adding a 100 μL acetonitrile (10% trichloroacetic acid for CYP2A6) internal standard mix, and the solution was placed on ice. The mixture was centrifuged at 12,000 rpm for 10 min, and an aliquot (50 μL) of supernatant was transferred for HPLC analysis. The instrument used in this study was Agilent 1260 series instrument with DAD and FLD detector, and the quantitative assay for the corresponding metabolites was performed as previously reported (Lang et al. [2017]; Zhang et al. [2017]).
(§4) Succinic acid (100 μM) was used to initially screen for its direct inhibitory effects towards different human CYP isoforms. […] Ki values were obtained by incubating various concentrations of different probe substrates (20–100 μM testosterone, 10–50 μM dextromethorphan, 5–20 μM diclofenac) in the presence of 0–50 μM succinic acid.
(§5) The enzyme kinetic parameters for the probe reaction were estimated from the best fit line, using least-squares linear regression of the inverse substrate concentration versus the inverse velocity (Lineweaver-Burk plots), and the mean values were used to calculate Vmax and Km. Inhibition data from the experiments that were conducted using multiple compound concentrations were represented by Dixon plots, and inhibition constant (Ki) values were calculated using non-linear regression according to the following equation: v=(VmaxS)/(Km(1+I/Ki)+S), where I is the concentration of the compound, Ki is the inhibition constant, S is the concentration of the substrate, and Km is the substrate concentration at half the maximum velocity (Vmax) of the reaction. The mechanism of the inhibition was inspected using the Lineweaver-Burk plots and the enzyme inhibition models. The data comparison was performed using Student’s t-test and performed using IBM SPSS statistics 20 (SPSS Inc.).

The target of series [5] is T2, CYP2C9. As to the kind of experiment: biochemical. As to the method:
as §2, §3, §4, §5

Series [6] addresses T3, CYP3A4. As to the kind of experiment: biochemical. As for the experimental part: as §2, §3, §4, §5

T2 sequence (P11712 whole entry): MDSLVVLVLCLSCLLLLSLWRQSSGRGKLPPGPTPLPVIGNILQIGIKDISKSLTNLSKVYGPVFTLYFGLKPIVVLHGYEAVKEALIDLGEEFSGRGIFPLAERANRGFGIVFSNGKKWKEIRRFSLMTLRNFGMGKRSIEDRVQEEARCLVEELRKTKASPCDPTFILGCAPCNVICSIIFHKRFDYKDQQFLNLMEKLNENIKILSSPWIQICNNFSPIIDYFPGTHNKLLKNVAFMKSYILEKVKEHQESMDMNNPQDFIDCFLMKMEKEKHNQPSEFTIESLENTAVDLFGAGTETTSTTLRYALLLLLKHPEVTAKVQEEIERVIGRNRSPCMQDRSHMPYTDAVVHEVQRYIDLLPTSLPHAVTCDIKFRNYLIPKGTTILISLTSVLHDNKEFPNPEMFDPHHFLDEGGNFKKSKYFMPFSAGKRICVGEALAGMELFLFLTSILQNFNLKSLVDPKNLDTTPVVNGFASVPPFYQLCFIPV
T3 sequence (P08684 whole entry): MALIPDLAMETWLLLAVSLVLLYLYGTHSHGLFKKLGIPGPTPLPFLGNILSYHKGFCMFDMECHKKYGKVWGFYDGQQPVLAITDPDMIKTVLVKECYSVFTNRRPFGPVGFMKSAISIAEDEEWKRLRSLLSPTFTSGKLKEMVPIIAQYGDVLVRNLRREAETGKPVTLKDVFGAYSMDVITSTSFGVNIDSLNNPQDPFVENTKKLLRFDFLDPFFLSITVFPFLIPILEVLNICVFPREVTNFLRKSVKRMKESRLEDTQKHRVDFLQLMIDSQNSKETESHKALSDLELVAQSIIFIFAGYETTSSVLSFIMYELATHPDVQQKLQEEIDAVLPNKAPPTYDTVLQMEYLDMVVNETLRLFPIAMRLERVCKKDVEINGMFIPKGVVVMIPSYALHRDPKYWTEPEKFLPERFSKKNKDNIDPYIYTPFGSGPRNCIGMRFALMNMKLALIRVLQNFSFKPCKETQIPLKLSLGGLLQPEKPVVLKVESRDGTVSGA
T1 sequence (P10635 whole entry): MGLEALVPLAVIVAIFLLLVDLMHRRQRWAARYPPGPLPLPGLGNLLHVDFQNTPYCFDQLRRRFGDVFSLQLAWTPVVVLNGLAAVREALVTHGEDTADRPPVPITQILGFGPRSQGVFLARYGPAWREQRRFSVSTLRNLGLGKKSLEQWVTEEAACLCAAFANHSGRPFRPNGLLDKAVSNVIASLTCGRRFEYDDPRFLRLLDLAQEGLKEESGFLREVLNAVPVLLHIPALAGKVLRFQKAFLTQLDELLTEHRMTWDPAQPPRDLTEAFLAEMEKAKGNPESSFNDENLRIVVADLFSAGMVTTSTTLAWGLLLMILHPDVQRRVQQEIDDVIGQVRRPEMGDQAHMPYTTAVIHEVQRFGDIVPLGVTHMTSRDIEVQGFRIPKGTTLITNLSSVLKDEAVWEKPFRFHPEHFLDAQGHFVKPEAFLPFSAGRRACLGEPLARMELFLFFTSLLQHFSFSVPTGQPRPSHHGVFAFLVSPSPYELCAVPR

For the molecule `O=C(O)CCC(=O)O` [succinic acid, Succinic acid], the “effect of incubation time on CYP2D6 activity” value in series [1] is “not affected by the incubation time”. For the same molecule, the “effect of incubation time on CYP2C9 activity” value in series [2] was “not affected by the incubation time”. The “time dependence of CYP3A4 inhibition” value in series [3] (succinic acid 20 μM, 0–30 min) is recorded as “time-dependent”. Also, in series [3] (succinic acid 20 μM, 30 min incubation, HLMs with NADPH), the “activity of CYP3A4 (decreased to) after incubating” value came out at 26.65%. Further, the “CYP3A4 inactivated by succinic acid” value in series [3] (suggested from Kinact) was “about 5.1%”. The IC50 in series [4] turned out to be 14.5 µM; in series [5] it was 19.6 µM; in series [6], 12.8 µM. In addition, the Ki came to 7.4 µM in series [4], 9.48 µM in series [5] and 6.18 µM in series [6]. Further, the “inhibition model CYP2D6 (Lineweaver-Burk plots)” value in series [4] (microsomes) is “competitive”. Moreover, the “inhibition model CYP2C9 (Lineweaver-Burk plots)” value in series [5] (pooled HLM) is reported as “competitive”. The “inhibition model CYP3A4 (Lineweaver-Burk plots)” value in series [6] (pooled HLM) is “non-competitive”.

As usually defined, the IC50 is the concentration needed to halve the response being measured. One may read the Ki as the dissociation constant of the complex between target and ligand, obtained from inhibition or displacement. High values mean a looser hold on the target, low ones a stronger hold on the target.

The record behind these values is PMC7751394, “Succinic acid inhibits the activity of cytochrome P450 (CYP450) enzymes” (Pharmaceutical Biology, 2020).
